According to patent US11505543B2, “4-oxo-3,4-dihydroquinazoline compounds as inhibitors of human immunodeficiency virus replication” (VIIV HEALTHCARE UK (NO.5) LIMITED, priority 2018, dated 2022):

Tests used:
[1] = tested on: recombinant NL4-3 virus (nef section replaced with Renilla luciferase gene) in MT-2 cells; assay: HIV cell culture assay (antiviral activity, luciferase readout); type: cell-based; settings: Renilla, NL43, MT-2 cells infected for 4-5 days with recombinant NL4-3 Renilla luciferase virus, serial dilutions of compound
How it was run: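 EC50 was derived by median-effect curve fitting of luciferase activity. The signal comes from MT-2 cells infected for 4–5 days with 293T-produced NL4-3 reporter virus, nef partly replaced by Renilla luciferase, in the presence of serially diluted compound.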

[2] = Compound cytotoxicity, XTT-based colorimetric assay; type: cell-based; settings: human, uninfected MT2 cells, day 4, XTT
How it was run: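 Run under the antiviral-assay protocol but without virus. Viability was read on day 4 and CC50 values were derived from the readout.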

Compound `Cc1cccc(-c2ccc3c(=O)n(-c4ccc(Cl)c5c(NS(=O)(=O)C6CC6)nn(CC(F)F)c45)c([C@H](Cc4cc(F)cc(F)c4)NC(=O)Cn4nc(C(F)F)c5c4C(F)(F)[C@@H]4C[C@H]54)nc3c2)n1` [Example 158, N-((S)-1-(3-(4-chloro-3-(cyclopropanesulfonamido)-1-(2,2-difluoroethyl)-1H-indazol-7-yl)-7-(6-methylpyridin-2-yl)-4-oxo-3,4-dihydroquinazolin-2-yl)-2-(3,5-difluorophenyl)ethyl)-2-((3bS,4aR)-3-(difluoromethyl)-5,5-difluoro-3b,4,4a,5-tetrahydro-1H-cyclopropa[3,4]cyclopenta[1,2-c]pyrazol-1-yl)acetamide] has an EC50 [1] of 0.14 nM and a CC50 at 4 day [2] of over 500 nM.

In the case of `Cc1ccnc(-c2ccc3c(=O)n(-c4ccc(Cl)c5c(NS(=O)(=O)C6CC6)nn(CC(F)F)c45)c([C@H](Cc4cc(F)cc(F)c4)NC(=O)Cn4nc(C(F)F)c5c4C(F)(F)[C@@H]4C[C@H]54)nc3c2)n1` [Example 159, N-((S)-1-(3-(4-chloro-3-(cyclopropanesulfonamido)-1-(2,2-difluoroethyl)-1H-indazol-7-yl)-7-(4-methylpyrimidin-2-yl)-4-oxo-3,4-dihydroquinazolin-2-yl)-2-(3,5-difluorophenyl)ethyl)-2-((3bS,4aR)-3-(difluoromethyl)-5,5-difluoro-3b,4,4a,5-tetrahydro-1H-cyclopropa[3,4]cyclopenta[1,2-c]pyrazol-1-yl)acetamide], the EC50 [1] is reported as 0.1 nM and the CC50 at 4 day [2] is reported as over 500 nM.

`CS(=O)(=O)c1ccccc1-c1ccc2c(=O)n(-c3ccc(Cl)c4c(NS(=O)(=O)C5CC5)nn(CC(F)F)c34)c([C@H](Cc3cc(F)cc(F)c3)NC(=O)Cn3nc(C(F)F)c4c3C(F)(F)[C@@H]3C[C@H]43)nc2c1` [Example 160, N-((S)-1-(3-(4-chloro-3-(cyclopropanesulfonamido)-1-(2,2-difluoroethyl)-1H-indazol-7-yl)-7-(2-(methylsulfonyl)phenyl)-4-oxo-3,4-dihydroquinazolin-2-yl)-2-(3,5-difluorophenyl)ethyl)-2-((3bS,4aR)-3-(difluoromethyl)-5,5-difluoro-3b,4,4a,5-tetrahydro-1H-cyclopropa[3,4]cyclopenta[1,2-c]pyrazol-1-yl)acetamide] gave an EC50 [1] of 0.082 nM and a CC50 at 4 day [2] of over 500 nM.

For `Cc1cccc(-c2ccc3c(=O)n(-c4ccc(Cl)c5c(NS(C)(=O)=O)nn(CC(F)(F)F)c45)c([C@H](Cc4cc(F)cc(F)c4)NC(=O)Cn4nc(C(F)F)c5c4C(F)(F)[C@@H]4C[C@H]54)nc3c2)n1` [Example 161, N-((S)-1-(3-(4-chloro-3-(methylsulfonamido)-1-(2,2,2-trifluoroethyl)-1H-indazol-7-yl)-7-(6-methylpyridin-2-yl)-4-oxo-3,4-dihydroquinazolin-2-yl)-2-(3,5-difluorophenyl)ethyl)-2-((3bS,4aR)-3-(difluoromethyl)-5,5-difluoro-3b,4,4a,5-tetrahydro-1H-cyclopropa[3,4]cyclopenta[1,2-c]pyrazol-1-yl)acetamide], the EC50 [1] was 0.12 nM and the CC50 at 4 day [2] was over 500 nM.

For `Cc1ccnc(-c2ccc3c(=O)n(-c4ccc(Cl)c5c(NS(C)(=O)=O)nn(CC(F)(F)F)c45)c([C@H](Cc4cc(F)cc(F)c4)NC(=O)Cn4nc(C(F)F)c5c4C(F)(F)[C@@H]4C[C@H]54)nc3c2)n1` [Example 162, N-((S)-1-(3-(4-chloro-3-(methylsulfonamido)-1-(2,2,2-trifluoroethyl)-1H-indazol-7-yl)-7-(4-methylpyrimidin-2-yl)-4-oxo-3,4-dihydroquinazolin-2-yl)-2-(3,5-difluorophenyl)ethyl)-2-((3bS,4aR)-3-(difluoromethyl)-5,5-difluoro-3b,4,4a,5-tetrahydro-1H-cyclopropa[3,4]cyclopenta[1,2-c]pyrazol-1-yl)acetamide], the EC50 [1] was 0.059 nM and the CC50 at 4 day [2] was over 500 nM.

`CS(=O)(=O)Nc1nn(CC(F)(F)F)c2c(-n3c([C@H](Cc4cc(F)cc(F)c4)NC(=O)Cn4nc(C(F)F)c5c4C(F)(F)[C@@H]4C[C@H]54)nc4cc(-c5ncccn5)ccc4c3=O)ccc(Cl)c12` [Example 163, N-((S)-1-(3-(4-chloro-3-(methylsulfonamido)-1-(2,2,2-trifluoroethyl)-1H-indazol-7-yl)-4-oxo-7-(pyrimidin-2-yl)-3,4-dihydroquinazolin-2-yl)-2-(3,5-difluorophenyl)ethyl)-2-((3bS,4aR)-3-(difluoromethyl)-5,5-difluoro-3b,4,4a,5-tetrahydro-1H-cyclopropa[3,4]cyclopenta[1,2-c]pyrazol-1-yl)acetamide] showed an EC50 [1] of 0.046 nM and a CC50 at 4 day [2] of over 500 nM.

`Cc1cc(C)nc(-c2ccc3c(=O)n(-c4ccc(Cl)c5c(NS(C)(=O)=O)nn(CC(F)(F)F)c45)c([C@H](Cc4cc(F)cc(F)c4)NC(=O)Cn4nc(C(F)F)c5c4C(F)(F)[C@@H]4C[C@H]54)nc3c2)n1` [Example 164, N-((S)-1-(3-(4-chloro-3-(methylsulfonamido)-1-(2,2,2-trifluoroethyl)-1H-indazol-7-yl)-7-(4,6-dimethylpyrimidin-2-yl)-4-oxo-3,4-dihydroquinazolin-2-yl)-2-(3,5-difluorophenyl)ethyl)-2-((3bS,4aR)-3-(difluoromethyl)-5,5-difluoro-3b,4,4a,5-tetrahydro-1H-cyclopropa[3,4]cyclopenta[1,2-c]pyrazol-1-yl)acetamide] gave an EC50 [1] of 0.096 nM and a CC50 at 4 day [2] of over 500 nM.

In the case of `Cc1nccnc1-c1ccc2c(=O)n(-c3ccc(Cl)c4c(NS(C)(=O)=O)nn(CC(F)(F)F)c34)c([C@H](Cc3cc(F)cc(F)c3)NC(=O)Cn3nc(C(F)F)c4c3C(F)(F)[C@@H]3C[C@H]43)nc2c1` [Example 165, N-((S)-1-(3-(4-chloro-3-(methylsulfonamido)-1-(2,2,2-trifluoroethyl)-1H-indazol-7-yl)-7-(3-methylpyrazin-2-yl)-4-oxo-3,4-dihydroquinazolin-2-yl)-2-(3,5-difluorophenyl)ethyl)-2-((3bS,4aR)-3-(difluoromethyl)-5,5-difluoro-3b,4,4a,5-tetrahydro-1H-cyclopropa[3,4]cyclopenta[1,2-c]pyrazol-1-yl)acetamide], the EC50 [1] is reported as 0.05 nM and the CC50 at 4 day [2] is reported as over 500 nM.

`Cc1ncc(-c2ccc3c(=O)n(-c4ccc(Cl)c5c(NS(C)(=O)=O)nn(CC(F)(F)F)c45)c([C@H](Cc4cc(F)cc(F)c4)NC(=O)Cn4nc(C(F)F)c5c4C(F)(F)[C@@H]4C[C@H]54)nc3c2)cn1` [Example 166, N-((S)-1-(3-(4-chloro-3-(methylsulfonamido)-1-(2,2,2-trifluoroethyl)-1H-indazol-7-yl)-7-(2-methylpyrimidin-5-yl)-4-oxo-3,4-dihydroquinazolin-2-yl)-2-(3,5-difluorophenyl)ethyl)-2-((3bS,4aR)-3-(difluoromethyl)-5,5-difluoro-3b,4,4a,5-tetrahydro-1H-cyclopropa[3,4]cyclopenta[1,2-c]pyrazol-1-yl)acetamide] gave an EC50 [1] of 0.037 nM and a CC50 at 4 day [2] of over 500 nM.
